PubChem BioAssay AID179 (DTP/NCI, 2004)
Where “and” joins values, the source holds several entries; their conditions need not be identical. Equal values may be shown once. Calls of active or inactive are those of the source.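 The calls were made as follows: active = compounds giving half or more protection of infected cells from virus-caused growth loss, again on retest; inactive = the rest.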

System: CEM cells HIV-1 protection, formazan growth assay
Assay: NCI AIDS Antiviral Assay
Conditions: for IC50: measured here: growth of uninfected CEM cells
How it was run: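 Steps: treat uninfected and HIV-1-infected human CEM cells at five drug levels; quantify growth by soluble formazan; retest any compound reaching 50% protection; classify actives from the retest.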

SMILES | outcome | EC50 | IC50
CN(C)CC1C2C=CC(C3CC23)C1CN(C)C (stereo not given) | inactive |  | 
C[Si]1(C)CCCSC1 |  | > 200 µM | > 200 µM
COC1/C=C/OC2(C)Oc3c(C)c(O)c4c(O)c(c(/C=N/N(C)C(C)C(O)c5ccccc5)c(O)c4c3C2=O)NC(=O)C(C)=C/C=C/C(C)C(O)C(C)C(O)C(C)C(OC(C)=O)C1C (stereo not given) |  | > 200 µM | 9.55 µM
CN(/N=C/c1cccs1)c1ccc([N+](=O)[O-])cc1[N+](=O)[O-] |  | > 200 µM | 107 µM
Nc1nc2c3nc(Nc4ccccc4)sc3nc(=S)n2c2sc(Nc3ccccc3)nc12 |  | > 11 µM | > 11 µM
Cn1c2ccccc2c(=S)c2c(O)cc3c(c21)C=CC(C)(C)O3 |  | > 200 µM | > 200 µM
c1nc2nc3c(cn2n1)CCCCC3 |  | > 200 µM | > 200 µM
Oc1ccccc1C=Nc1ccc(Oc2ccc(Cl)cc2)c(Cl)c1 |  | > 200 µM | 13.2 µM
c1ccc2c(c1)nnn2CNc1ccc(N2CCOCC2)cc1 |  | > 200 µM | 51.3 µM
ON=C(C1CC1)C1CC1 |  | > 200 µM | > 200 µM
COC(=O)/C(=N\N)C(C(=O)C(=O)Nc1cc(Cl)ccc1Cl)c1nc2ccc([N+](=O)[O-])cc2[nH]c1=O (stereo not given) |  | > 182 µM | 83.2 µM
O=C(CCCC[n+]1ccccc1)Sc1ccccc1C(=O)Nc1ccc(S(=O)(=O)c2ccc(NS(=O)(=O)Cc3ccccc3[N+](=O)[O-])cc2)cc1 |  | 9.55 µM | > 200 µM
CC(C)=C/C(CC(O)(C(F)(F)F)C(F)(F)F)=N\O |  | > 200 µM | > 200 µM
CC(=O)O[C@H]1C(N(C)C(=O)c2ccccc2)CC[C@]2(C)C3CC[C@@]4(C)C(CC(O)[C@@H]4C(C)N(C)C)[C@@H]3CCC12 (stereo not given in full) |  | > 25.1 µM | > 25.1 µM
COc1cc2c(c(OC)c1OC)-c1ccc(SC)c(=O)cc1C(NC(=O)c1ccccc1)CC2 (stereo not given) |  | > 2 µM | 0.000708 µM
O=[N+]([O-])c1ccc(Cl)cc1C=NC12CC3CC(CC(C3)C1)C2 |  | > 200 µM | 11.5 µM
N=c1oc2ccc3ccccc3c2cc1C(N)=S |  | > 200 µM | 9.55 µM
CCOC(=O)C[C@](C)(O)C1CCCN1 (stereo not given in full) | inactive |  | 
Cn1ccc(-c2cn(C)c3ccnn3c2=O)n1 |  | > 200 µM | > 200 µM
COC1C=COC2(C)Oc3c(C)c(O)c4c(O)c(c(C5SCCS5)c(O)c4c3C2=O)NC(=O)/C(C)=C\C=CC(C)C(O)C(C)C(O)C(C)C(OC(C)=O)C1C (stereo not given) |  | > 200 µM | 0.646 µM
Cc1cc(C)nc(NS(=O)(=O)c2ccc(Nc3c4ccccc4nc4c(C(=O)NNCCO)cccc34)cc2)n1 |  | > 200 µM | 33.1 µM
[O]=[Sb][c]1ccc(C(=O)O)cc1 |  | > 200 µM | 26.3 µM

SMILES | outcome | EC50 | IC50
CCOC(=O)C1=C(c2ccccc2)N(C(C)=O)Cc2ccccc21 |  | > 50.1 µM | 28.2 µM
O=C(O)Cc1ccccc1 |  | > 200 µM | > 200 µM
CC1(C)NC(=S)NC1=O |  | > 200 µM | > 200 µM
CS(=O)(=O)N(CCC#N)c1ccc(C=O)cc1 |  | > 102 µM | > 102 µM
CN(C)CCCNC(=O)c1cc(NC(=O)c2cc(NC(=O)c3cc(N4C(=O)c5ccccc5C4=O)cn3C)cn2C)cn1C |  | > 81.3 µM | 57.5 µM
CCOC(=O)CCCN(c1sc(C)c(-c2ccccc2)c1C(=O)OCC)S(=O)(=O)c1ccc(C)cc1 |  | > 200 µM | 3.98 µM
NC(=O)CCCCC1CCSS1 (stereo not given) |  | > 457 µM | > 457 µM
CN(C)c1ccc(/C=C/C(=O)c2ccc(O)cc2)cc1 |  | > 200 µM | 3.31 µM
CSc1n[nH]c(NC(=O)c2ccccc2Br)n1 |  | > 575 µM | 427 µM
COc1ccc(CN2CCCN(Cc3ccc(OC)cc3)C2c2cc([N+](=O)[O-])ccc2O)cc1 |  | > 200 µM | 28.8 µM
COc1cccc(C(O)C(CN2CCCCC2)CN2CCCCC2)c1 (stereo not given) |  | > 200 µM | > 100 µM
CC1(c2nc3ccccc3[nH]2)CCC(C(N)=O)C(C)(C)O1 (stereo not given) |  | > 200 µM | > 200 µM
CC1=NOC(=O)/C1=C/c1ccc([N+](=O)[O-])cc1 |  | > 1070 µM | 933 µM
Cc1c(-c2nc(N)c(C#N)c(N)c2C#N)c(=O)oc2ccccc12 |  | > 200 µM | 115 µM
Cn1c(=O)c2c(nc3n2CCC(=O)N3)n(C)c1=O |  | > 251 µM | > 251 µM
C=CC1=CSNN1 |  | > 437 µM | 347 µM
O[C@]12c3ccccc3C1CCCCC2N1CCOCC1 (stereo not given in full) |  | > 200 µM | > 200 µM
N#CC(/C=C/c1ccccc1)NCCc1ccccc1 (stereo not given) |  | > 10.5 µM | > 10.5 µM
COc1cc2nc(Sc3c([N+](=O)[O-])ncn3C)[nH]c2cc1OC |  | > 389 µM | 5.5 µM
N#Cc1cc2ccccc2n(Cc2ccccc2)c1=O |  | > 200 µM | > 200 µM
O=c1/c(=C/c2ccc3c(c2)OCO3)sc2nnc(-c3ccco3)n12 |  | > 55 µM | > 55 µM
N#CNC(N)=NC1=CC(=O)C(=O)c2ccccc21 |  | > 30.2 µM | 17.4 µM

SMILES | outcome | EC50 | IC50
OCC[N+]12CCCN1CCC2 |  | > 1050 µM | > 1050 µM
O=C1C=CC=CC2CC=C[C@@H](O)C12 (stereo not given in full) |  | > 251 µM | 12 µM
C[C@@H]1C(=O)CC2C(C)(C)CCC[C@]2(C)[C@@]12CC[C@]1(C=COC1)O2 (stereo not given in full) |  | > 50.1 µM | > 50.1 µM
CC(C)(C)c1ccc2c(c1)OCc1n[nH]c(n1)COc1cc(C(C)(C)C)ccc1OCCOCCO2 |  | > 200 µM | 7.24 µM
O=[N+]([O-])c1ccc[c]([Sb](=[O])([OH])[OH])c1 |  | > 398 µM | > 200 µM
S=C(N/N=C/c1ccccc1)NC12CC3CC(CC(C3)C1)C2 | inactive |  | 
O=C1N=NC(=O)N1c1ccccc1 |  | > 200 µM | > 200 µM
N#C/C(=C\NC(=S)Nc1cc(Cl)ccc1Cl)c1nc2ccccc2s1 |  | > 100 µM | > 100 µM
O=C1c2sccc2[C@H](NC(=O)C(F)(F)F)[C@@H]1Cl |  | > 200 µM | > 200 µM
N#Cc1n[nH]n(-c2ccc(Br)cc2)c1=O |  | > 200 µM | > 200 µM
O=C(NCCCOC(=O)CCCCCCCCC(=O)OCCCNC(=O)NC(=O)c1c[nH]c(=O)[nH]c1=O)NC(=O)c1c[nH]c(=O)[nH]c1=O |  | 214 µM | 263 µM
C[N+]1(CCCl)CCc2cc([N+](=O)[O-])ccc2C1 (stereo not given) |  | > 200 µM | > 200 µM
Cc1ccc(NC(=O)c2[nH]c(=S)nc(N)c2-c2ccccc2C)cc1C |  | > 692 µM | > 692 µM
O=C1c2ccccc2C(=O)N1/N=C1/SC(=Nc2ccccc2)C(=Nc2ccccc2)N1c1ccccc1 | inactive |  | 
c1ccc2c(c1)SCCCSCCCS2 |  | > 28.2 µM | > 28.2 µM
N#Cc1nc(Nc2ccc([N+](=O)[O-])cc2)sc1N |  | > 38 µM | 19.1 µM
C=C(C)[C@@H]1CC[C@]2(C(=O)O)CC[C@]3(C)[C@H](CC[C@@H]4[C@@]5(C)CC[C@H](O)C(C)(C)[C@@H]5CC[C@]43C)[C@@H]12 |  | > 200 µM | 20.9 µM
O=C(O)CN(c1ccccc1)S(=O)(=O)c1cccc([N+](=O)[O-])c1 | inactive |  | 
CC1/C=C/C=C/CC/C=C/C=C/C=C/C=C/C(OC2OC(C)C(O)C(N)C2O)CC2OC(CC(O)C(O)CCC(O)CC(O)CC(O)CC(=O)OC(C)C(C)C1O)CC(O)C2C(=O)O (stereo not given) |  | > 50.1 µM | 3.31 µM
C#CC(C)(C)Oc1ccc2c(=O)c(-c3ccccc3)coc2c1 |  | > 200 µM | 
C[C@H](CCC(=O)O)[C@H]1CC[C@H]2[C@@H]3[C@H](O)C[C@@H]4C[C@H](O)CC[C@]4(C)[C@H]3CC[C@]12C |  | > 200 µM | 39.8 µM
COC(=O)c1cc(C(=CCCC(C)[C@H]2CCC3C4CC[C@@H]5CCCC[C@]5(C)C4CC[C@@]32C)c2cc(Cl)c(OC)c(C(=O)OC)c2)cc(Cl)c1OC (stereo not given in full) |  | > 200 µM | 39.8 µM

SMILES | outcome | EC50 | IC50
CCN1C[C@]2(COC)C(O)CC(OC)C34[C@@H]5C[C@@]6(O)C(O)[C@@H]5[C@](O)(C(O)[C@@H]6OC)[C@@H](C(OC)[C@@H]32)[C@H]14 (stereo not given in full) | inactive |  | 
Cc1[nH]cc2c1C(c1ccccc1)=NCC(=O)N2 |  | > 200 µM | > 200 µM
COc1c(C)c(C/C=C(\C)CCCCO)c(OC)c2ccccc12 |  | > 200 µM | 22.9 µM
CCOP(=O)(OCC)/C(=C/c1ccccc1)CC(C)=O |  | > 200 µM | 148 µM
CCOP(=S)(N/N=C\C(C)(C)C1CCCCC1)OCC |  | > 200 µM | 30.9 µM
CC(=O)NC(C)c1ccc(N=NN2CCCC2)cc1 (stereo not given) |  | > 200 µM | 79.4 µM
CNC(=S)N/N=C(\C(=N/NC(=S)NC)c1ccccn1)c1ccccn1 |  | > 0.2 µM | 0.0513 µM
N#CC1(C#N)OC12CCS(=O)(=O)c1ccccc12 (stereo not given) |  | > 501 µM | 89.1 µM
CC(=O)NNc1nc(C)c(C(=O)/C=C/c2ccc(Cl)cc2)s1 |  | > 56.2 µM | > 56.2 µM
CC(C)=CCOc1cc(O)c2c(O)c3c(cc2c1)CC(C)(C)CC3=O |  | > 100 µM | 7.08 µM
Cc1cn(C2CC(N=C(N)NO)C(CO)O2)c(=O)[nH]c1=O (stereo not given) |  | > 5250 µM | 708 µM
COC(=O)C(=C\Sc1ccccc1)/C=C/C(=O)OC(C)(C)C | inactive |  | 
CCOC(=N)CC(=O)Nc1ccccc1 |  | > 40.7 µM | > 40.7 µM
COc1cc(OC)c2nc3ccccc3c(NCCC[N+](C)(C)[O-])c2c1[N+](=O)[O-] |  | > 200 µM | 132 µM
Cc1nc(C(N)=S)sc1C(=O)/C=C/c1cccc(O)c1 |  | > 85.1 µM | > 85.1 µM
CCOC(=O)CCC[P+](c1ccccc1)(c1ccccc1)c1ccccc1 |  | > 200 µM | 22.4 µM and 7.76 µM
Cc1ccc(S(=O)(=O)N2CCN3C(=O)c4ccccc4C32c2ccc(F)cc2)cc1 (stereo not given) |  | > 200 µM | 31.6 µM
Cn1c(=O)c2nc(N3CCOCC3)cnc2n(C)c1=O |  | > 200 µM | > 200 µM
Cc1cc2c(=O)cc(-c3ccc(O)cc3)oc2c(C(=O)O)c1C | inactive |  | 
CCOC(=O)C1Sc2ccccc2N=C1C (stereo not given) |  | > 30.9 µM | > 30.9 µM
O=c1c2c([nH]c3nccn13)CCCC2 |  | > 200 µM | > 200 µM
